In PubChem BioAssay (NCI):
Values joined by “and” are separate entries in the source; they are usually repeats but may differ in a detail not shown here. Identical values can stand only once.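 Following 48 hours of exposure in 96-well plates, responses at five concentrations were used to interpolate endpoints linearly. At the GI50, growth is halved. At the TGI there is no net growth.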

How the values were obtained:
Experiment in all cases: DTP human tumour cell line panel, 48 h
T-47D breast = system: T-47D breast
PC-3 prostate = system: PC-3 prostate
DU-145 prostate = system: DU-145 prostate
DLD-1 colon = system: DLD-1 colon
HOP-18 NSCLC = system: HOP-18 NSCLC
LXFL 529 NSCLC = system: LXFL 529 NSCLC
MDA-N = system: MDA-N

## Cc1nc2sc(C(=O)Nc3ccccc3)c(N)c2cc1C(=O)/C=C/c1ccccc1
T-47D breast
  GI50: 2.48 µM
  TGI: 8.2 µM
PC-3 prostate
  GI50: 2.14 µM
  TGI: 5.55 µM
DU-145 prostate
  GI50: 1.81 µM
  TGI: 3.6 µM

## CCOC(=O)C(=O)Nc1c(C)cccc1C
DLD-1 colon
  TGI: > 100 µM
HOP-18 NSCLC
  TGI: > 100 µM
LXFL 529 NSCLC
  TGI: > 100 µM

## N#CC(C(=O)C(=O)NCCCNC(=O)C(=O)C(C#N)c1ccccc1)c1ccccc1 (configuration not stated)
DLD-1 colon
  TGI: > 100 µM
HOP-18 NSCLC
  TGI: > 100 µM
LXFL 529 NSCLC
  TGI: > 100 µM

## CCc1cc(O)c(Cl)c(C)c1Cl
MDA-N
  TGI: 29.9 µM
T-47D breast
  TGI: > 100 µM
PC-3 prostate
  TGI: 40.2 µM
DU-145 prostate
  TGI: 31.2 µM

## Clc1nc(Cl)c2c(ncn2C/C=C\Cn2cnc3c(Cl)nc(Cl)nc32)n1
T-47D breast
  GI50: 1.32 µM
  TGI: 3.06 µM
PC-3 prostate
  GI50: 2.31 µM
  TGI: 5.58 µM
DU-145 prostate
  GI50: 1.53 µM
  TGI: 2.86 µM

## OCCCCCCOc1ccc(-c2cc(-c3ccccn3)nc(-c3ccccn3)c2)cc1
DLD-1 colon
  TGI: 2.99 µM
T-47D breast
  TGI: 5.74 µM
HOP-18 NSCLC
  TGI: 3.99 µM
PC-3 prostate
  TGI: 5.31 µM
DU-145 prostate
  TGI: 7.83 µM
LXFL 529 NSCLC
  TGI: 4.97 µM

## O=NNc1nc(-c2cccnc2)nc2ccccc12
MDA-N
  TGI: > 100 µM
T-47D breast
  TGI: > 100 µM
PC-3 prostate
  TGI: > 100 µM
DU-145 prostate
  TGI: > 100 µM

## CC(=O)O[C@@H]1CC2C(C)(C)CCCC2(C)C2=C1C(=O)C(C(C)C)=CC2=O (some centres not stated)
T-47D breast
  GI50: 1.49 µM
  TGI: 7.31 µM
PC-3 prostate
  GI50: 2.45 µM
  TGI: 12.9 µM
DU-145 prostate
  GI50: 1.09 µM
  TGI: 2.48 µM

## Nc1cc(N)c(N)cc1N
T-47D breast
  GI50: 4.57 µM
  TGI: 24.5 µM
PC-3 prostate
  GI50: 3.1 µM
  TGI: > 100 µM
DU-145 prostate
  GI50: 1.75 µM
  TGI: 3.18 µM

## CC(C)(C)c1ccc(S(=O)(=O)N[C@H]2CC[C@H]3[C@@H]4CCc5cc(OS(=O)(=O)O)ccc5[C@H]4CC[C@]23C)cc1
T-47D breast
  GI50: 2.82 µM
  TGI: 9.96 µM
PC-3 prostate
  GI50: 4.19 µM
  TGI: 17.5 µM
DU-145 prostate
  GI50: 5.72 µM
  TGI: 18 µM

## C=C(C)C(=O)O[C@H]1[C@H]2[C@H](OC(=O)[C@H]2C)[C@H](O)[C@@H](C)[C@@H]2C=CC(=O)[C@]21C
MDA-N
  TGI: 7.68 µM
T-47D breast
  TGI: 12.5 µM
PC-3 prostate
  TGI: 18.5 µM
DU-145 prostate
  TGI: 12.9 µM

## CN(C)CCOc1ccc2c(c1)C/C(=C/c1ncc([N+](=O)[O-])n1C)C2=O
MDA-N
  TGI: 16.8 µM
T-47D breast
  TGI: 32.8 µM
PC-3 prostate
  TGI: 18.3 µM
DU-145 prostate
  TGI: 14 µM

## COc1cc(-c2cn(-c3ccc(Cl)cc3)c(C)c2C(=O)C(F)(F)F)cc(OC)c1OC
T-47D breast
  GI50: 6.95 µM
  TGI: > 100 µM
PC-3 prostate
  GI50: 13.6 µM
  TGI: > 100 µM
DU-145 prostate
  GI50: > 100 µM
  TGI: > 100 µM

## CC(=O)[O-].CC(=O)[O-].[NH2-].[Pt+2].c1ccc2cnccc2c1
T-47D breast
  GI50: 1.61 µM
  TGI: 24.7 µM
PC-3 prostate
  GI50: > 100 µM
  TGI: > 100 µM
DU-145 prostate
  GI50: 12.2 µM
  TGI: 64.2 µM

## Cn1nc(-c2ccccc2)c(C(=O)/C=C/c2ccccc2)c(N2CCOCC2)c1=O
DLD-1 colon
  TGI: > 100 µM
HOP-18 NSCLC
  TGI: 89.7 µM
LXFL 529 NSCLC
  TGI: 34 µM

## COc1ccc(C(C#N)NNc2nc(C)cc(=O)[nH]2)cc1OC (configuration not stated)
DLD-1 colon
  TGI: > 100 µM
HOP-18 NSCLC
  TGI: > 100 µM
LXFL 529 NSCLC
  TGI: > 100 µM

## Oc1ccc(CCCCCCc2ccc(O)cc2)cc1
T-47D breast
  GI50: 8.03 µM
  TGI: 27.2 µM
PC-3 prostate
  GI50: 9.87 µM
  TGI: 27.5 µM
DU-145 prostate
  GI50: 4.8 µM
  TGI: 15.2 µM

## OCc1ccc(-c2nn(Cc3ccccc3)c3ccccc23)o1
T-47D breast
  GI50: 11.1 µM and 12.4 µM
  TGI: 43.4 µM and 26.2 µM
PC-3 prostate
  GI50: 21.8 µM and 16.6 µM
  TGI: 64.7 µM and 36 µM
DU-145 prostate
  GI50: 16.6 µM and 17.8 µM
  TGI: 36.9 µM and 43.8 µM

## CC(=O)Nc1ccc2c(c1)oc(=O)c1cc(NC(C)=O)ccc12
T-47D breast
  GI50: 59.6 µM
  TGI: > 100 µM
PC-3 prostate
  GI50: 92.4 µM
  TGI: > 100 µM
DU-145 prostate
  GI50: > 100 µM
  TGI: > 100 µM

## COc1c(N2CCN(CN3C(=O)C(=Nc4ccc(S(=O)(=O)Nc5ncccn5)cc4)c4ccccc43)C(C)C2)c(F)cc2c(=O)c(C(=O)O)cn(C3CC3)c12 (configuration not stated)
PC-3 prostate
  GI50: > 50 µM
  TGI: > 50 µM
DU-145 prostate
  GI50: 11.2 µM
  TGI: 35.2 µM

## CCCCCCCCCCCC[n+]1ccc(CCCCCCCCC)cc1
T-47D breast
  GI50: 0.28 µM
  TGI: 1.54 µM
PC-3 prostate
  GI50: 0.597 µM
  TGI: 1.93 µM
DU-145 prostate
  GI50: 1.37 µM
  TGI: 2.75 µM

## O=C(CCl)N1c2ccccc2Sc2c1ccc1ccccc21
T-47D breast
  GI50: 2.19 µM
  TGI: 6.07 µM
PC-3 prostate
  GI50: 1.74 µM
  TGI: 4.45 µM
DU-145 prostate
  GI50: 3.32 µM
  TGI: 10.8 µM

## CCCCCCCCCCCCCCCCCCCCCC(=O)Nc1ccn(C2OC(CO)C(O)C2O)c(=O)n1 (configuration not stated)
DLD-1 colon
  TGI: > 100 µM
HOP-18 NSCLC
  TGI: > 100 µM
LXFL 529 NSCLC
  TGI: > 100 µM

## COc1cc([C@@H]2c3cc4c(cc3[C@@H](NC(=O)c3ccccc3)C3COC(=O)[C@@H]32)OCO4)cc(OC)c1O (some centres not stated)
DLD-1 colon
  TGI: > 100 µM
HOP-18 NSCLC
  TGI: > 100 µM
LXFL 529 NSCLC
  TGI: > 100 µM

## CC1OC2CC(=O)OC2C2=C1C(=O)c1c(O)c3c(c(O)c1C2=O)C1CC(O)C3(O)C(C)O1 (configuration not stated)
T-47D breast
  GI50: 0.336 µM
  TGI: 1.55 µM
PC-3 prostate
  GI50: 0.533 µM
  TGI: 6.47 µM
DU-145 prostate
  GI50: 1.38 µM
  TGI: 2.69 µM

## COC(=O)C1C2C=CC(C2)N1[C@@H](C)c1ccccc1 (some centres not stated)
DLD-1 colon
  TGI: > 100 µM
HOP-18 NSCLC
  TGI: > 100 µM
LXFL 529 NSCLC
  TGI: > 100 µM

## O=C1CC[C@@H](S(=O)(=O)c2ccccc2)[C@@H](/C=C/c2ccccc2)O1
HOP-18 NSCLC
  TGI: > 100 µM
LXFL 529 NSCLC
  TGI: > 100 µM

## COc1ccc(C2S/C(=C\c3ccc(O)cc3)C(=O)N2NC(=O)Cc2ccccc2)cc1 (configuration not stated)
DLD-1 colon
  TGI: > 100 µM
HOP-18 NSCLC
  TGI: > 100 µM
LXFL 529 NSCLC
  TGI: > 100 µM

## CC(C)CC1=[N+]=C(NC#N)N=C(CCC(=O)Nc2ccccc2[N+](=O)[O-])C1
DLD-1 colon
  TGI: > 100 µM
HOP-18 NSCLC
  TGI: > 100 µM
LXFL 529 NSCLC
  TGI: > 100 µM

## Cc1cc(C(C#N)c2ccc(Cl)cc2)c(Cl)cc1NC(=O)c1cc(I)cc(I)c1O (configuration not stated)
T-47D breast
  GI50: 19.1 µM and 15.2 µM
  TGI: 46.9 µM and 37 µM
PC-3 prostate
  GI50: 3.18 µM and 11.7 µM
  TGI: 23 µM and 32.5 µM
DU-145 prostate
  GI50: 14.5 µM and 15.2 µM
  TGI: 28.7 µM and 29.1 µM

## C[C@H]1[C@H](C)CC[C@]2(C(=O)O)CC[C@]3(C)C(=CC[C@@H]4[C@@]5(C)C/C(=C/c6cccnc6)[C@H](O)C(C)(C)[C@@H]5CC[C@]43C)[C@H]12
T-47D breast
  GI50: 9.88 µM
  TGI: > 100 µM
PC-3 prostate
  GI50: 6.35 µM
  TGI: > 100 µM
DU-145 prostate
  GI50: 15.4 µM
  TGI: > 100 µM

## CC(=O)n1c2ccccc2c2nc3nc(Oc4ccc(C)cc4)c4ccccc4c3cc21
DLD-1 colon
  TGI: > 100 µM
LXFL 529 NSCLC
  TGI: > 100 µM
